Substitutions are numbered along the chain they refer to. Where two headings read alike, the source gives them in different places. Ends that are not written are not given here.
Legend:
Assay in all cases: biochemical
[1] = target: T1, HLA-DP DPA1*01:03/DPB1*20:01 (Homo sapiens, UniProt P04440+P20036, A65V/A84D/A85E/E86D/F38Y/G113D/G114E/G40L/I94L/L37V/M116V/P115A/R125K/T199I); format: binding
T1 sequence (P20036 29-260): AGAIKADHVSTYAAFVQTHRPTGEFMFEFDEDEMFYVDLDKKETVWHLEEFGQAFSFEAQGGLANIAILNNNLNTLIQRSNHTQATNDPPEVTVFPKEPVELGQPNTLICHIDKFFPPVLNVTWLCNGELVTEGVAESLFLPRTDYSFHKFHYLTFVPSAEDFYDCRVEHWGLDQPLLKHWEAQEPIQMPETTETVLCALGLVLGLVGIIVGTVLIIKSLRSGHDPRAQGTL
T1 sequence (P04440 30-258 L37V/F38Y/G40L/A65V/A84D/A85E/E86D/I94L/G113D/G114E/P115A/M116V/R125K/T199I/V234M): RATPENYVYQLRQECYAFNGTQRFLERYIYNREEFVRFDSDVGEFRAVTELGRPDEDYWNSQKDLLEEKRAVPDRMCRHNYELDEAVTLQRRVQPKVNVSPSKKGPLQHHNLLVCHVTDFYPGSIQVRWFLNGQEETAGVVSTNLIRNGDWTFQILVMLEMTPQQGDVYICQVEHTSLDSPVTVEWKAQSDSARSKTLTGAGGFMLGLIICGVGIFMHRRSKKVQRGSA

[2] = target: HLA-DP DPA1*03:01/DPB1*04:02 (Homo sapiens, UniProt P04440+P20036, A42M/A65V/A84D/A85E/L207M/L97S)
HLA-DR DRB1*07:01 = HLA-DR DRB1*07:01 (Homo sapiens, UniProt P01903+P01911, A100R/A102G/A103Q/D57E/D86V/E43K/F76Y/K127E/L162R/M171V/P40G/Q125H/Q99D/R33Q/R42Y/R54Q/S133A/S66F/T210M/V115G/Y107V/Y59L/Y89S); format: binding
HLA-DR DRB1*12:01 = HLA-DR DRB1*12:01 (Homo sapiens, UniProt P01903+P01911, A100R/A169T/D57E/D86V/F55L/H45Y/K41T/L162R/M171V/P40S/Q125H/Q178H/Q39Y/Q99D/R42G/S66L/T262R/V114A/V67L/W38E/Y59H/Y61H/Y89S); format: binding
HLA-DR DRB1*01:01 = HLA-DR DRB1*01:01 (Homo sapiens, UniProt P01903+P01911, A100R/D57E/F55L/F60I/F76Y/I96L/L162R/M171V/P40L/Q125E/R42F/V115G/Y59C); format: binding
HLA-DR DRB4*01:01 = HLA-DR DRB4*01:01 (Homo sapiens, UniProt P01903+P13762, G164S); format: binding
[3] = target: T2, HLA-DP DPA1*02:01/DPB1*14:01 (Homo sapiens, UniProt P04440+P20036, A65V/A84D/A85E/E86D/F191V/F38H/G113D/G114E/G40L/I94L/K142R/L158P/L37V/M105V/M116V/M62Q/P115A/Q81R/R125K/T114A/T199I/T259P); format: binding
T2 sequence (P20036 29-260 A42M/M62Q/Q81R/T114A/K142R/L158P/F191V/T259P): T1 sequence (P20036 29-260) with A14M, M34Q, Q53R, T86A, K114R, L130P, F163V, T231P
T2 sequence (P04440 30-258 L37V/F38H/G40L/A65V/A84D/A85E/E86D/I94L/M105V/G113D/G114E/P115A/M116V/R125K/T199I/R223Q): T1 sequence (P04440 30-258 L37V/F38Y/G40L/A65V/A84D/A85E/E86D/I94L/G113D/G114E/P115A/M116V/R125K/T199I/V234M) with Y9H, M76V, R194Q, M205V

[4] = target: T3, HLA-DP DPA1*01:03/DPB1*04:01 (Homo sapiens, UniProt P04440+P20036); format: binding
T3 sequence (P20036 29-260): T1 sequence (P20036 29-260)
T3 sequence (P04440 30-258): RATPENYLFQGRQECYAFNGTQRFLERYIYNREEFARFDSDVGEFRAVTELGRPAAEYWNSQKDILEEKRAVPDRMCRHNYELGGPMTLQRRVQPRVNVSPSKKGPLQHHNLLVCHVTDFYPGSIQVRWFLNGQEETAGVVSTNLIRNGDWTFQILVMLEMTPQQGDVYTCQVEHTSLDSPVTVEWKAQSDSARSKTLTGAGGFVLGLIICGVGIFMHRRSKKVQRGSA

[5] = target: HLA-DP DPA1*02:01/DPB1*01:01 (Homo sapiens, UniProt P04440+P20036, F191V/F38Y/F64Y/G113D/G114E/K142R/L158P/L37V/M105V/M116V/M62Q/P115A/Q81R/R125K/R223Q/T114A/T199I/T259P)
HLA-DP DPA1*02:01/DPB1*01:01, sequence (P20036 29-260 A42M/M62Q/Q81R/T114A/K142R/L158P/F191V/T259P, other chains not shown): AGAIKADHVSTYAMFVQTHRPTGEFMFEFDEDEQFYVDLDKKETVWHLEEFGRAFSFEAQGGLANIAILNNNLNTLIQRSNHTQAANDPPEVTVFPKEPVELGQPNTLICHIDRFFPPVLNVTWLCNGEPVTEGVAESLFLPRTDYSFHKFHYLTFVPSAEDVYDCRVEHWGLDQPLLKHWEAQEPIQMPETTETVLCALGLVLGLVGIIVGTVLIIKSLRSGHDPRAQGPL
HLA-DR DRB1*10:01 = HLA-DR DRB1*10:01 (Homo sapiens, UniProt P01903+P01911, A100R/A169T/D57E/F55L/F60V/F69Y/F76Y/I96L/L162R/M171V/P40V/Q260P/Q39E/Q99R/R195Q/R42F/S149N/S66Y/T210M/V115G/V67A/W38E/Y59R/Y61H); format: binding
HLA-DR DRB1*08:02 = HLA-DR DRB1*08:02 (Homo sapiens, UniProt P01903+P01911, A100R/A103L/A169T/F76Y/H45Y/I96F/K41T/L162R/M171V/P40S/Q125H/Q178H/Q39Y/Q99D/R218S/R42G/S66Y/V115G/W38E); format: binding
HLA-DR DRB1*16:02 = HLA-DR DRB1*16:02 (Homo sapiens, UniProt P01903+P01911, A100R/F76Y/I96L/Q99D/V115G); format: binding
[6] = read-out: Binding capacity/IC50 (nM) DRB1*07:01
[7] = read-out: Binding capacity/IC50 (nM) DRB1*12:01
[8] = read-out: Binding capacity/IC50 (nM) DRB1*01:01
[9] = read-out: Binding capacity/IC50 (nM) DRB4*01:01
[10] = read-out: Binding capacity/IC50 (nM) DPA1*01:03 DPB1*04:01
[11] = read-out: Binding capacity/IC50 (nM) DPA1*01:03 DPB1*20:01
[12] = read-out: Binding capacity/IC50 (nM) DRB1*10:01
[13] = read-out: Binding capacity/IC50 (nM) DRB1*08:02
[14] = read-out: Binding capacity/IC50 (nM) DRB1*16:02
[15] = read-out: Binding capacity/IC50 (nM) DPA1*02:01 DPB1*14:01

Compound | IC50 [2] | IC50 (HLA-DR DRB1*07:01; [6]) | IC50 (HLA-DR DRB1*12:01; [7]) | IC50 (HLA-DR DRB1*01:01; [8]) | IC50 (HLA-DR DRB4*01:01; [9]) | IC50 [3] | IC50 [4, 10] | IC50 [5] | IC50 [1, 11] | IC50 (HLA-DR DRB1*10:01; [12]) | IC50 (HLA-DR DRB1*08:02; [13]) | IC50 (HLA-DR DRB1*16:02; [14]) | IC50 [3, 15] | IC50 [4] | further results
CC[C@H](C)[C@H](NC(=O)CNC(=O)[C@H](CCCCN)NC(=O)[C@H](Cc1c[nH]cn1)NC(=O)[C@H](C)NC(=O)[C@@H]1CCCN1C(=O)[C@@H](NC(=O)[C@H](Cc1c[nH]c2ccccc12)NC(=O)[C@H](CO)NC(=O)[C@H](CC(C)C)NC(=O)[C@H](Cc1ccc(O)cc1)NC(=O)[C@@H](NC(=O)[C@H](CCCCN)NC(=O)[C@H](CCC(=O)O)NC(=O)[C@@H](N)CCCCN)C(C)C)C(C)C)C(=O)NCC(=O)NCC(=O)N[C@@H](CC(N)=O)C(=O)N[C@@H](CCC(=O)O)C(N)=O [RT(528-546)] | 150 nM | 6.3 nM | 2100 nM | 16 nM | 57 nM | 4850 nM | 1390 nM | 585 nM | – | – | – | – | – | – | IC50 [1]: 6 nM
YAKMRSAHTNDVKQL-NH2 [RT(354-368)] | 6960 nM | 120 nM | 4840 nM | – | 1440 nM | 919 nM | 3550 nM | 4430 nM | 202 nM | 16 nM | 2.1 nM | 58 nM | – | – | –
VGSLQYLALTALITPKK-NH2 [vif(142-158)] | 1.5 nM | – | – | – | – | 71 nM | 33 nM | 115 nM | – | – | – | – | – | – | IC50 [1]: 262 nM; IC50 (HLA-DR DRB1*07:01): 4.1 nM; IC50 (HLA-DR DRB1*08:02): 25 nM; IC50 (HLA-DR DRB1*12:01): 1670 nM; IC50 (HLA-DR DRB1*01:01): 0.35 nM; IC50 (HLA-DR DRB4*01:01): 78 nM
SEELRSLYNTVATLYCVHQ-NH2 [p17(72-90)] | 83 nM | 661 nM | 1680 nM | 20 nM | 1100 nM | 9710 nM | 240 nM | 860 nM | 2310 nM | 39 nM | 73 nM | 140 nM | – | – | –
IRYPLTFGWCFKLVPVDPREVEEA-NH2 [nef(133-156)] | 670 nM | 472 nM | 4430 nM | 315 nM | 1640 nM | – | 44 nM | 249 nM | 13000 nM | – | 2160 nM | 2740 nM | 15900 nM | – | –
CSCC[C@H](NC(=O)[C@H](CCCCN)NC(=O)[C@H](C)NC(=O)[C@H](Cc1ccc(O)cc1)NC(=O)[C@H](CCCCN)NC(=O)CNC(=O)[C@@H](NC(=O)[C@H](CCCCN)NC(=O)[C@H](CC(C)C)NC(=O)[C@H](CC(N)=O)NC(=O)[C@H](CCCCN)NC(=O)[C@H](Cc1ccccc1)NC(=O)[C@@H]1CCCN1C(=O)[C@H](CCC(=O)O)NC(=O)[C@@H](N)CCC(N)=O)[C@@H](C)O)C(N)=O [RT(343-357)] | 4210 nM | – | – | – | 2920 nM | 15100 nM | – | 300 nM | 2790 nM | – | – | – | – | 14 nM | IC50 (HLA-DR DRB1*07:01): 6210 nM; IC50 (HLA-DR DRB1*10:01): 19 nM; IC50 (HLA-DR DRB1*08:02): 947 nM; IC50 (HLA-DR DRB1*12:01): 239 nM; IC50 (HLA-DR DRB1*16:02): 464 nM; IC50 (HLA-DR DRB1*01:01): 81 nM
DEELLKAVRIIKILYQSNP-NH2 [rev(9-27)] | 5.8 nM | 41 nM | 66 nM | 7.4 nM | – | – | – | 461 nM | 202 nM | 3.9 nM | 9.5 nM | 74 nM | 710 nM | 637 nM | –
IVALIIAIVVWTIV-NH2 [vpu(13-26)] | 1300 nM | > 30000 nM | 12700 nM | 261 nM | – | – | > 30000 nM | 26100 nM | 5810 nM | 1780 nM | 765 nM | 4360 nM | > 30000 nM | – | –
LNKIVRMYSPVSILDI-NH2 [p24(138-153)] | 1 nM | – | – | – | 25 nM | – | – | 26 nM | 3 nM | 6.6 nM | 3.1 nM | – | 16 nM | 47 nM | –
